Measurements taken from US6420129B1, “Reagent composition for determination of electrolytes” (Toyo Boseki Kabushiki Kaisha, priority 1998, dated 2002).

How the values were obtained:
[1] = biological target: T1, Inactive α-amylase (from swine pancreas) (Sus scrofa, UniProt P00690); assay: Residual activity of α-amylase in test enzyme solutions after storage; type: biochemical; details: after storage at 35° C. for 7 days
T1 construct: α-amylase derived from the swine pancreas; from tissue; host or cells: swine pancreas
T1 sequence (P00690 16-511): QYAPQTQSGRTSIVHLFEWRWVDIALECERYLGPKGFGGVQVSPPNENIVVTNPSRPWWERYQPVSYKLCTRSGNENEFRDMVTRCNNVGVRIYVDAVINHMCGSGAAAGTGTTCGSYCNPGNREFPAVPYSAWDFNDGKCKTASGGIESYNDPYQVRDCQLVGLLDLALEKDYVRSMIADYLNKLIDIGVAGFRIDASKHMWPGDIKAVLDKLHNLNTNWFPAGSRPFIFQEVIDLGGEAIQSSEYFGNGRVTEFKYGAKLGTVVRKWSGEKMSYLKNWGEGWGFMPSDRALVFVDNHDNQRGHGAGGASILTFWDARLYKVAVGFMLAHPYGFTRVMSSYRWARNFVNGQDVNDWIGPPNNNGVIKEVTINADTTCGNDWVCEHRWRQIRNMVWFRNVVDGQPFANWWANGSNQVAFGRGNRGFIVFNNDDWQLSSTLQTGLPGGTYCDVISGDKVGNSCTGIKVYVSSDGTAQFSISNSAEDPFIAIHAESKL
Procedure: [table] In the test enzyme solutions of the reagents for the determination of calcium with the reagent formulations as described above in Example 1, glucosyl-α-cyclodextrin, maltosyl-α-cyclodextrin, glucosyl-β-cyclodextrin, or maltosyl-β-cyclodextrin was independently added as a cyclodextrin derivative at 12 mM. […] Instead of the cyclodextrin derivatives and the SH group containing compounds in the reagent formulations as described above in Example 1, glucose (100 mM), maltose (50 mM), maltotriose (30 mM), α-cyclodextrin (1.5 mM), β-cyclodextrin (1.5 mM), γ-cyclodextrin (1.5 mM), N-acetylcysteine (20 mM), or reduced glutathione (20 mM) was independently added to have the respective concentrations as shown in Table 3.

[2] = biological target: T1, Inactive α-amylase (from swine pancreas); assay: Relative sensitivity in determination of calcium with 10 mg/dl calcium standard solution; type: biochemical; details: for Relative sensitivity (%) when sensitivity in case of no addition is taken as 100%: just after the preparation, 10 mg/dl calcium standard; for sensitivity in the determination of the standard solution (in words): by addition of the agent, versus no addition
Procedure: [table] In the test enzyme solutions of the reagents for the determination of calcium with the reagent formulations as described above in Example 1, glucosyl-α-cyclodextrin, maltosyl-α-cyclodextrin, glucosyl-β-cyclodextrin, or maltosyl-β-cyclodextrin was independently added as a cyclodextrin derivative at 0, 1.5, 3, 6, or 12 mM. To the test enzyme solutions containing 3 mM glucosyl-β-cyclodextrin was further added independently N-acetylcysteine or reduced glutathione at 2.5, 5, 10, or 20 mM, and the determination of calcium ions with a calcium standard solution was carried out as described below. According to the method as described below, the determination of the amount of calcium was carried out for test solutions just after the preparation with 10 mg/dl calcium standard solution as a sample, and the relative sensitivity (%) was determined under the respective reagent conditions when the sensitivity in the case of no addition of cyclodextrin derivatives was taken as 100%. B. Method for the Determination of the Amount of Calcium To 5.8 μl of a sample was added 180 μl of a test enzyme solution, and the mixture was pre-warmed for 5 minutes, to which 90 μl of a test substrate solution was further added to make the reaction start. […] The measuring apparatus used was HITACHI Automatic Analyzer model 7170. The measurement wavelength was 405 nm for the principal wavelength and 546 nm for the second wavelength. The measurement was carried out at 37° C. […] The test solutions thus prepared were used for the determination of the calcium standard solution in the same manner as described in Example 3.

[3] = Visual observation of test solutions for deposition of crystals or white turbidity; type: physicochemical; set-up: key to turbidity (visual observation): +: turbidity found; −: no turbidity
Procedure: Among the reagents for the determination of calcium with the reagent formulations as described below, test enzyme solutions were prepared by the addition of glucosyl-α-cyclodextrin (G1αCD), maltosyl-α-cyclodextrin (G2αCD), glucosyl-p-cyclodextrin (G1βCD), or maltosyl-β-cyclodextrin(G2βCD) as a cyclodextrin derivative to have a concentration of 0, 1.5, 3, 6, or 12 mM. To the test enzyme solutions containing 3 mM glucosyl-β-cyclodextrin was further added independently N-acetylcysteine or reduced glutathione to have a concentration of 2.5, 5, 10, or 20 mM.
Both kinds of test solutions prepared by the above procedures were stored at 4° C. for 3 months. Visual observation of the test solutions was carried out just after the preparation and after the storage to examine whether there was found the deposition of crystals or the presence of white turbidity. The results are shown in table 1 for the visual observation just after the preparation and in Table 2 for the visual observation after the storage.
The test solutions were prepared in the same manner as described in Example 1, except that α-cyclodextrin (αCD) (1.5, 3, 6, or 12 mM), β-cyclodextrin (βCD) (1.5, 3, 6, or 12 mM), or γ-cyclodextrin (γCD) (1.5, 3, 6, or 12 mM) was independently added instead of the cyclodextrin derivatives and the SH group containing compounds in the above reagent formulations to have the respective concentrations as shown in Table 1. Both kinds of test solutions were stored at 4° C. for 3 months. Visual observation of the test solutions was carried out just after the preparation and after the storage to examine whether there was found the deposition of crystals or the presence of white turbidity. The results are shown in Table 1 for the visual observation just after the preparation and in Table 2 for the visual observation after the storage.

[4] = biological target: T1, Inactive α-amylase (from swine pancreas); assay: Relative sensitivity in determination of calcium with 10 mg/dl calcium standard solution; type: biochemical
[5] = after storage at 4° C. for 3 months, agent added 1.5 mM
[6] = after storage at 4° C. for 3 months, agent added 3 mM
[7] = after storage at 4° C. for 3 months, agent added 6 mM
[8] = after storage at 4° C. for 3 months, agent added 12 mM
[9] = just after the preparation, agent added 1.5 mM
[10] = just after the preparation, agent added 3 mM
[11] = just after the preparation, agent added 6 mM
[12] = just after the preparation, agent added 12 mM
[13] = after the storage at 4° C. for 3 months, at 3 mM
[14] = just after the preparation, at 6 mM

SMILES	Residual activity (%) ([1]; agent 12 mM)	Relative sensitivity (%) when sensitivity in case of no addition is taken as 100% ([2]; agent 1.5 mM) [%]	Relative sensitivity (%) when sensitivity in case of no addition is taken as 100% ([2]; agent 3 mM) [%]	Relative sensitivity (%) when sensitivity in case of no addition is taken as 100% ([2]; agent 6 mM) [%]	Relative sensitivity (%) when sensitivity in case of no addition is taken as 100% ([2]; agent 12 mM) [%]	turbidity (visual observation) [3, 5]	turbidity (visual observation) [3, 6]	turbidity (visual observation) [3, 7]	turbidity (visual observation) [3, 8]	turbidity (visual observation) [3, 9]	turbidity (visual observation) [3, 10]	turbidity (visual observation) [3, 11]	turbidity (visual observation) [3, 12]	also measured
OCC1OC(OC2C(CO)OC(OCC3OC4OC5C(CO)OC(OC6C(CO)OC(OC7C(CO)OC(OC8C(CO)OC(OC9C(CO)OC(OC3C(O)C4O)C(O)C9O)C(O)C8O)C(O)C7O)C(O)C6O)C(O)C5O)C(O)C2O)C(O)C(O)C1O (stereo not drawn) [G2αCD, maltosyl-α-cyclodextrin]	82.3	112.5	123.0	119.4	122.8	−	−	−	−	−	−	−	−	
OC[C@H]1O[C@@H]2O[C@H]3[C@H](O)[C@@H](O)[C@@H](O[C@H]4[C@H](O)[C@@H](O)[C@@H](O[C@H]5[C@H](O)[C@@H](O)[C@@H](O[C@H]6[C@H](O)[C@@H](O)[C@@H](O[C@H]7[C@H](O)[C@@H](O)[C@@H](O[C@H]1[C@H](O)[C@H]2O)O[C@@H]7CO)O[C@@H]6CO)O[C@@H]5CO)O[C@@H]4CO)O[C@@H]3CO [αCD, α-cyclodextrin, reference compound]						−	−	+	+	−	−	+	+	Residual activity (%) ([1]; agent 1.5 mM): 70.5%; turbidity of test enzyme solution (in words) [3, 13]: became turbid; turbidity of test enzyme solution (in words) [3, 14]: had already become turbid
OCC1OC(OCC2OC3OC4C(CO)OC(OC5C(CO)OC(OC6C(CO)OC(OC7C(CO)OC(OC8C(CO)OC(OC2C(O)C3O)C(O)C8O)C(O)C7O)C(O)C6O)C(O)C5O)C(O)C4O)C(O)C(O)C1O (stereo not drawn) [G1αCD, glucosyl-α-cyclodextrin]	80.4	112.8	120.2	122.3	118.9	−	−	−	−	−	−	−	−	
CC(=O)N[C@@H](CS)C(=O)O [NAC, N-acetylcysteine]														remaining activity at 20000 µM ([1]; agent 20 mM): 71.2%
OC[C@H]1O[C@H](O[C@H]2[C@H](O)[C@@H](O)C(O)O[C@@H]2CO)[C@H](O)[C@@H](O)[C@@H]1O (mixture of isomers) [maltose]														remaining activity at 50000 µM ([1]; agent 50 mM): 73.5%; sensitivity in the determination of the standard solution (in words) [2]: remarkably decreased; Relative sensitivity (%) when sensitivity in case of no addition is taken as 100% ([4]; agent 6.3 mM): 99.7%; Relative sensitivity (%) when sensitivity in case of no addition is taken as 100% ([4]; agent 12.5 mM): 89.3%; Relative sensitivity (%) when sensitivity in case of no addition is taken as 100% ([4]; agent 25 mM): 83.9%; Relative sensitivity (%) when sensitivity in case of no addition is taken as 100% ([4]; agent 50 mM): 70.1%
N[C@@H](CCC(=O)N[C@@H](CS)C(=O)NCC(=O)O)C(=O)O [GSH, reduced glutathione]														Residual activity (%) ([1]; agent 20 mM): 75.4%
OCC1OC(OC2C(CO)OC(OC3C(CO)OC(O)C(O)C3O)C(O)C2O)C(O)C(O)C1O (stereo not drawn) [maltotriose]														Residual activity (%) ([1]; agent 30 mM): 77.3%; sensitivity in the determination of the standard solution (in words) [2]: remarkably decreased; Relative sensitivity (%) when sensitivity in case of no addition is taken as 100% ([4]; agent 3.8 mM): 47.1%; Relative sensitivity (%) when sensitivity in case of no addition is taken as 100% ([4]; agent 7.5 mM): 24.3%; Relative sensitivity (%) when sensitivity in case of no addition is taken as 100% ([4]; agent 15 mM): 7.4%; Relative sensitivity (%) when sensitivity in case of no addition is taken as 100% ([4]; agent 30 mM): 4.6%
OCC1OC(OC2C(CO)OC(OCC3OC4OC5C(CO)OC(OC6C(CO)OC(OC7C(CO)OC(OC8C(CO)OC(OC9C(CO)OC(OC%10C(CO)OC(OC3C(O)C4O)C(O)C%10O)C(O)C9O)C(O)C8O)C(O)C7O)C(O)C6O)C(O)C5O)C(O)C2O)C(O)C(O)C1O (stereo not drawn) [G2βCD, maltosyl-β-cyclodextrin]	93.0	122.8	120.7	120.2	123.0	−	−	−	−	−	−	−	−	
OC[C@H]1O[C@@H]2O[C@H]3[C@H](O)[C@@H](O)[C@@H](O[C@H]4[C@H](O)[C@@H](O)[C@@H](O[C@H]5[C@H](O)[C@@H](O)[C@@H](O[C@H]6[C@H](O)[C@@H](O)[C@@H](O[C@H]7[C@H](O)[C@@H](O)[C@@H](O[C@H]8[C@H](O)[C@@H](O)[C@@H](O[C@H]9[C@H](O)[C@@H](O)[C@@H](O[C@H]1[C@H](O)[C@H]2O)O[C@@H]9CO)O[C@@H]8CO)O[C@@H]7CO)O[C@@H]6CO)O[C@@H]5CO)O[C@@H]4CO)O[C@@H]3CO [γCD, γ-cyclodextrin, reference compound]						−	−	+	+	−	−	+	+	Residual activity (%) ([1]; agent 1.5 mM): 74.6%; turbidity of test enzyme solution (in words) [3, 13]: became turbid; turbidity of test enzyme solution (in words) [3, 14]: had already become turbid
